Reference: patent US8263638B2, “Dosing regimens for ion channel modulating compounds” (priority 2004, dated 2012)
Read-outs that look alike come from different tables or passages of the source.

How the values were obtained:
[1] = COMPOUND A plasma concentrations in acute AF study (Example 2); type: in vivo, human
Procedure: A Holter rhythm strip continuously monitored ECG, vital signs (blood pressure and heart rate, BP and HR, respectively) and O2 saturation were recorded every 2 min from the start of infusion to 5 min after, as well as at 15, 30, 60, 120, 240, 360, and 480 min and at discharge and one-week follow-up. Twelve-lead ECGs were obtained before dosing and every minute during infusion to 5 min after, as well as at 15, 30, 60, 120, 240, 360, and 480 min and at discharge, 24 h and one-week follow-up, and at the time of arrhythmia termination or significant rhythm changes. Venous blood samples were drawn for COMPOUND A plasma concentrations at 0, 15, 30, 120, 240, 480 min discharge and at AF termination or significant adverse events.
COMPOUND A doses were infused over 10 min as indicated in the text. Initially a 2 mg/kg infusion was given and if required an additional 3 mg/kg was infused 30 min later in the RSD-2 group. Time is shown relative to the end of the first infusion (T1).

[2] = Plasma levels in Atrial Arrhythmia Conversion Trial 1 (Example 6); type: in vivo, human; settings: for concentration at 10 min: human, plasma, intravenous
Procedure: Plasma levels were obtained, where possible, for the patients at various time intervals following the initial infusion. The time intervals were 10 minutes (i.e., immediately after the initial infusion), 35 minutes (i.e., immediately after the second infusion where applicable), 50 minutes, 90 minutes, and 24 hours.

[3] = tested on: Human Cardiac Electrophysiology; test: Electrophysiological effects of two intravenous doses in patients (Example 1); type: in vivo; set-up: AH interval / HV interval / VERP / AERP / QT / QRS / Atrial MAP50: unit not given here; settings: for Diastolic BP / HEART RATE / Systolic BP: T = 45 min
Procedure: This example provides the results of a study conducted to determine the electrophysiological effects of two intravenous doses of COMPOUND A. Patients in the study required electrophysiologic studies (with or without radiofrequency ablation) and were from 18 to 75 years of age. Following the study and ablation (if applicable), the atrial MAP catheter was positioned and the following electrophysiological measures were performed: • 1. Intervals reflecting conduction: […] Intervals reflecting repolarization/refractoriness: • a). […] Heart rate, brachial (cuff) blood pressure. Drug Administration: • 1. […] Twenty five minutes after the start of intravenous drug infusion (15 minutes after the end of loading and start of maintenance infusion), all electrophysiological measures were repeated.

[4] = patients that received only the 2 mg/kg infusion
[5] = patients receiving both infusions
[6] = patients receiving only a first infusion

With `COc1ccc(CCO[C@@H]2CCCC[C@H]2N2CC[C@@H](O)C2)cc1OC.Cl` [COMPOUND A, (1R,2R)-2-[(3R)-hydroxypyrrolidinyl]-1-(3,4-dimethoxyphenethoxy)cyclohexane monohydrochloride] the “Plasma drug levels at 24 h post-infusion (below the limit of detection)” value ([1]; RSD-1, majority of patients) was < 5 ng/mL, the “mean plasma levels at 24 h” value ([1]; RSD-2 group) was 17 ng/mL and the “Mean peak plasma levels” value ([1]; patients that received both 0.5 and 1.0 mg/kg) was 1.9 µg/mL. For the same compound, the “Mean peak plasma levels” value ([1]; patients that received both the 2.0 and 3.0 mg/kg infusions) was 5.8 µg/mL, the “mean peak plasma levels at the end of infusion” value [1, 4] was 2.6 µg/mL and the “mean terminal elimination half life” value [1, 4] was 3.1 h. For the same compound, the “median plasma level at the time of AF conversion” value [1, 4] was 1.3 µg/mL, the concentration at 10 min ([2]; 2 mg/kg, patients receiving both infusions (3.0 + 2.0 mg/kg), read-out: Plasma Concentration of COMPOUND A at 10 min., Mean) was 3910 ng/mL and the concentration at 10 min ([2]; 3 mg/kg, patients receiving only a first infusion (3.0 mg/kg), read-out: Plasma Concentration of COMPOUND A at 10 min., Mean) was 4280 ng/mL. The concentration at 10 min ([2]; 3 mg/kg, patients receiving only a first infusion, read-out: Plasma Concentration of COMPOUND A at 10 min., Maximum) was 11600 ng/mL, the concentration at 10 min ([2]; 3 mg/kg, patients receiving only a first infusion, read-out: Plasma Concentration of COMPOUND A at 10 min., Median) was 4080 ng/mL and the concentration at 10 min ([2]; 3 mg/kg, patients receiving only a first infusion, read-out: Plasma Concentration of COMPOUND A at 10 min., Minimum) was 0 ng/mL. The concentration at 10 min ([2]; patients receiving both infusions, read-out: Plasma Concentration of COMPOUND A at 10 min., Maximum) was 9330 ng/mL, the concentration at 10 min ([2]; patients receiving both infusions, read-out: Plasma Concentration of COMPOUND A at 10 min., Median) was 4070 ng/mL and the concentration at 10 min ([2]; patients receiving both infusions, read-out: Plasma Concentration of COMPOUND A at 10 min., Minimum) was 0 ng/mL. The “Maximum Plasma Concentration of COMPOUND A, Maximum” value [2, 5] was 9330 ng/mL, the “Maximum Plasma Concentration of COMPOUND A, Median” value [2, 5] was 4855 ng/mL and the “Maximum Plasma Concentration of COMPOUND A, Minimum” value [2, 5] was 1430 ng/mL. The “Maximum Plasma Concentration of COMPOUND A, Mean” value ([2]; patients receiving both infusions (3.0 + 2.0 mg/kg)) was 4662 ng/mL, the “Maximum Plasma Concentration of COMPOUND A, Maximum” value [2, 6] was 11600 ng/mL and the “Maximum Plasma Concentration of COMPOUND A, Median” value [2, 6] was 4075 ng/mL. The “Maximum Plasma Concentration of COMPOUND A, Minimum” value [2, 6] was 7 ng/mL, the “Maximum Plasma Concentration of COMPOUND A, Mean” value ([2]; patients receiving only a first infusion (3.0 mg/kg)) was 4466 ng/mL and the “AERP 400 Ave Δ” value ([3]; Dose Level 1) was 3.3 ± 5.4%. For the same compound, the “AERP 400 Ave Δ (Change from Baseline)” value ([3]; Dose Level 1) was 5.0 ± 9.0 ms, the “SNRT (A1 400)” value ([3]; Dose Level 1) was 1114.4 ± 227.4 ms and the “SNRT (A1 600)” value ([3]; Dose Level 1) was 1157.8 ± 238.3 ms. For the same compound, the “Wenckebach Cycle Length” value ([3]; Dose Level 1) was 388.1 ± 94.4 ms, the “Diastolic BP” value ([3]; Dose Level 1, 2 mg/kg) was 84 ± 12 mm Hg and the “HEART RATE” value ([3]; Dose Level 1, 2 mg/kg) was 78 ± 11 bpm. The “Systolic BP” value ([3]; Dose Level 1, 2 mg/kg) was 135 ± 15 mm Hg, the AERP ([3]; Dose Level 1, 300 msec) was 180.5 ± 15.5 and the AERP ([3]; Dose Level 1, 400 msec) was 195.0 ± 23.8. For the same compound, the VERP ([3]; Dose Level 1, 400 msec) was 226.7 ± 16.4, the AH interval ([3]; Dose Level 1, 400 msec pacing) was 134.2 ± 69.2 and the HV interval ([3]; Dose Level 1, 400 msec pacing) was 52.5 ± 13.6. The PA interval ([3]; Dose Level 1, 400 msec pacing) was 61.8 ± 30.2, the PR interval ([3]; Dose Level 1, 400 msec pacing) was 239.2 ± 76.7 and the AERP ([3]; Dose Level 1, 600 msec) was 219.5 ± 32.2. For the same compound, the VERP ([3]; Dose Level 1, 600 msec) was 247.8 ± 22.0, the AH interval ([3]; Dose Level 1, 600 msec pacing) was 113.8 ± 29.9 and the HV interval ([3]; Dose Level 1, 600 msec pacing) was 50.1 ± 12.6. For the same compound, the PA interval ([3]; Dose Level 1, 600 msec pacing) was 64.0 ± 22.4, the PR interval ([3]; Dose Level 1, 600 msec pacing) was 227.7 ± 45.3 and the “Atrial MAP50” value ([3]; Dose Level 1, A1 200 msec) was 116.4 ± 15.4. The “Atrial MAP50” value ([3]; Dose Level 1, A1 250 msec) was 134.2 ± 18.4, the “Atrial MAP50” value ([3]; Dose Level 1, A1 300 msec) was 139.5 ± 20.4 and the “Atrial MAP50” value ([3]; Dose Level 1, A1 400 msec) was 152.6 ± 19.7. The QRS ([3]; Dose Level 1, A1 400 msec) was 87.0 ± 6.6, the QT ([3]; Dose Level 1, A1 400 msec) was 325.4 ± 9.0 and the “Atrial MAP50” value ([3]; Dose Level 1, A1 600 msec) was 172.8 ± 31.9. For the same compound, the QRS ([3]; Dose Level 1, A1 600 msec) was 89 ± 9, the QT ([3]; Dose Level 1, A1 600 msec) was 363 ± 27 and the “QRS Ave Δ” value ([3]; Dose Level 1, V1 400) was 7.6 ± 11.5%. The QRS ([3]; Dose Level 1, V1 400 msec) was 160.5 ± 23.0, the QT ([3]; Dose Level 1, V1 400 msec) was 381.5 ± 25.2 and the QRS ([3]; Dose Level 1, V1 600 msec) was 169 ± 24. The QT ([3]; Dose Level 1, V1 600 msec) was 433 ± 30, the “AERP 400 Ave Δ” value ([3]; Dose Level 2) was 14.7 ± 11.5 % and the “AERP 400 Ave Δ (Change from Baseline)” value ([3]; Dose Level 2) was 24.4 ± 17.8 ms. For the same compound, the “AERP 600 Ave Δ” value ([3]; Dose Level 2) was 16.9 ± 9.0 %, the “SNRT (A1 400)” value ([3]; Dose Level 2) was 1047.1 ± 212.2 ms and the “SNRT (A1 600)” value ([3]; Dose Level 2) was 1033.3 ± 247.8 ms. The “Wenckebach Cycle Length” value ([3]; Dose Level 2) was 366.9 ± 53.7 ms, the “Diastolic BP” value ([3]; Dose Level 2, 4 mg/kg) was 75 ± 9 mm Hg and the “HEART RATE” value ([3]; Dose Level 2, 4 mg/kg) was 91 ± 19 bpm. For the same compound, the “Systolic BP” value ([3]; Dose Level 2, 4 mg/kg) was 126 ± 15 mm Hg, the AERP ([3]; Dose Level 2, 300 msec) was 192.8 ± 20.2 and the AERP ([3]; Dose Level 2, 400 msec) was 206.7 ± 25.6. The VERP ([3]; Dose Level 2, 400 msec) was 227.5 ± 16.3, the AH interval ([3]; Dose Level 2, 400 msec pacing) was 147.0 ± 67.6 and the HV interval ([3]; Dose Level 2, 400 msec pacing) was 50.2 ± 8.4. For the same compound, the PA interval ([3]; Dose Level 2, 400 msec pacing) was 75.8 ± 24.4, the PR interval ([3]; Dose Level 2, 400 msec pacing) was 261.2 ± 60.4 and the AERP ([3]; Dose Level 2, 600 msec) was 227.9 ± 22.5. For the same compound, the VERP ([3]; Dose Level 2, 600 msec) was 261.7 ± 16.3, the AH interval ([3]; Dose Level 2, 600 msec pacing) was 101.7 ± 21.5 and the HV interval ([3]; Dose Level 2, 600 msec pacing) was 50.9 ± 7.0. For the same compound, the PA interval ([3]; Dose Level 2, 600 msec pacing) was 69.1 ± 21.5, the PR interval ([3]; Dose Level 2, 600 msec pacing) was 224.6 ± 18.8 and the “Atrial MAP50” value ([3]; Dose Level 2, A1 200 msec) was 124.0. For the same compound, the “Atrial MAP50” value ([3]; Dose Level 2, A1 250 msec) was 130.0 ± 14.5, the “Atrial MAP50” value ([3]; Dose Level 2, A1 300 msec) was 135.6 ± 20.4 and the “Atrial MAP50” value ([3]; Dose Level 2, A1 400 msec) was 143.7 ± 25.2. The QRS ([3]; Dose Level 2, A1 400 msec) was 86.4 ± 9.0, the QT ([3]; Dose Level 2, A1 400 msec) was 336.7 ± 27.8 and the “Atrial MAP50” value ([3]; Dose Level 2, A1 600 msec) was 165.5 ± 33.3. The QRS ([3]; Dose Level 2, A1 600 msec) was 89 ± 8, the QT ([3]; Dose Level 2, A1 600 msec) was 364 ± 20 and the QRS ([3]; Dose Level 2, V1 400 msec) was 157.3 ± 22.5. The QT ([3]; Dose Level 2, V1 400 msec) was 376.3 ± 32.5, the QRS ([3]; Dose Level 2, V1 600 msec) was 157 ± 15 and the QT ([3]; Dose Level 2, V1 600 msec) was 412 ± 30. For the same compound, the “effect on ventricular refractoriness, repolarization or conduction” value ([3]; at the doses studied) was “no significant effect”, the “conduction effect in the AV node, His Purkinje, and ventricular tissue” value ([3]; conclusion of study) was “small but significant conduction slowing effect” and the “effect on atrial refractory periods” value ([3]; conclusion of study) was “dose-dependently prolongs”. For the same compound, the “patients with a metallic taste in mouth” value ([3]; n=19, both dose levels) was “three”, the “patients with a transient tingling sensation” value ([3]; n=19, both dose levels) was “four” and the “patients with numbness in tongue” value ([3]; n=19, both dose levels) was “one”. The “patients with transient hypotension” value ([3]; n=19, both dose levels) was “one”.
